The source of these data is US10669238B2, “Irreversible bruton's tyrosine kinase inhibitor” (HEFEI INSTITUTES OF PHYSICAL SCIENCE, CHINESE ACADEMY OF …, priority 2016, dated 2020).

In one test the target is BTK WT (Homo sapiens, UniProt Q06187). The experiment in a line: Btk cell-free kinase assay, BTK WT protein. In kind it is biochemical. The conditions noted are these: compound 30 mins at room temperature, then 100 μM ATP 20 min at 37° C. The text has this:
The BTK wild-type plasmid and the BTK mutant plasmid (C481S) were respectively transfected into SF9 cells (purchased from invitrogen), and after three generations of virus amplification, the P3-generation virus was used to transfect SF9 cells which were collected after 72-hour culture to obtain protein BTK WT and protein BTK C481S, which were then purified.

The test system of test [1] is acute promyelocytic leukemia cell line NB-4 (Lu+). In words: Cell proliferation (Cell Titer-Glo), NB4. The class given is cell-based. The conditions noted are these: NB4, 72 hours; read-out: Effects on cell proliferation (GI50). The procedure: (§1) The selectivity of Compound 1 in inhibiting the proliferation of cancer cells was further evaluated by testing the effect of Btk inhibitors on the growth of cancer cells. […]
(§2) In this example different concentrations (0.000508 μM, 0.00152 μM, 0.00457 μM, 0.0137 μM, 0.0411 μM, 0.123 μM, 0.370 μM, 1.11 μM, 3.33 μM, 10 μM) of Compound 1 and Compound 6 were respectively added into the above cells which were then cultured for 72 hours. The number of viable cells was determined via quantitative determination of ATP in living cells by using Cell Titer-Glo® (Promega, the USA) Chemical Luminescent Cell Viability Assay kit.
In general terms: Cellular ATP, detected with luciferase, serves as a proxy for viable cell number.

Test [2] has as its system acute myeloid leukemia cell lines MOLM13. In words: Cell proliferation (Cell Titer-Glo), MOLM13. The class given is cell-based. The conditions noted are these: Homo sapiens, MOLM-13; MOLM13, 72 hours; read-out: Effects on cell proliferation (GI50). The procedure: as §1, §2
Test [3] concerns diffuse large B-cell lymphoma cell lines TMD8. The experiment in a line: Cell proliferation (Cell Titer-Glo), TMD8. In kind it is cell-based. The conditions noted are these: Homo sapiens, TMD8, 72 h, read-out: Effects on cell proliferation (GI50).
Source text: The following cells were adopted in the example: acute myelocytic leukemia cell strains (acute myelocytic leukemia, AML) HL-60, B-lymphoma cell Ramos, colon cancer cells HCT116, leukemic cells K562, B-cell lymphoma cells U2932, diffuse large B-cell lymphoma cell line OCI-LY10, diffuse histiocytic lymphoma cells SU-DHL-2, diffuse large B-cell lymphoma cell lines TMD8, leukemia cell OCI-AML-3, acute promyelocytic leukemia cell line NB-4 (Lu+), MDS-RAEB (myelodysplastic syndrome—excessive blasts) cell lines SKM-1, human leukocyte leukemia cells HEL, acute myeloid leukemia cell lines (acute myelocytic leukemia, AML) U937, acute myeloid leukemia cell lines (acute myelocytic leukemia, AML) MOLM14, acute myeloid leukemia cell lines (acute myelocytic leukemia, AML) MOLM13, acute myeloid leukemia cell lines (acute myelocytic leukemia, AML) M-07e, acute myeloid leukemia cell lines (acute myelocytic leukemia, AML) MV4-11, acute myeloid leukemia cell lines (acute myelocytic leukemia, AML) MOLM16, diffuse large B-cell lymphoma cell lines Pfeiffer, multiple myeloma cell lines (multiple myeloma) RPM18226, bone marrow plasma cell tumor cells AMO-1, mouse pro-B cells BaF3, all purchased from ATCC.
Test [4] deals with Pfeiffer (human diffuse large cell lymphoma B lymphocytes). In words: Cell apoptosis (PARP and Caspase 3 cleavage) in Pfeiffer. In kind it is cell-based. The conditions noted are these: 48 hours. The protocol:
(§3) Various concentrations (0.5 μM, 1 μM, 5 μM, 10 μM) of Compound 1 was administered to Pfeiffer (human diffuse large cell lymphoma B lymphocytes, purchased from Cobioer Biosciences Co., LTD (Nanjing)) and U2932 (B-cell lymphoma cells, purchased from ATCC) in order to confirm whether cell death after the administration was caused by apoptosis or necrosis. After 48 hours, effects of Compound 1 on protein cleavage of the DNA repairase poly(ADP-ribose) polymerase (PARP) and Caspase (cysteinyl aspartate-specific proteinase) 3 that were closely related to cell apoptosis was examined.

Test [5] deals with U2932 (B-cell lymphoma cells). In words: Cell apoptosis (PARP and Caspase 3 cleavage) in U2932. The class given is cell-based. The protocol:
as §3

Test [6] concerns U2932 (B-cell lymphoma cells). The experiment in a line: Cell cycle distribution by flow cytometry in U2932. In kind it is cell-based. The conditions noted are these: U2932, 10 μM, 48 hours. The protocol: Effect of Compound 1 on cell cycle distribution was examined respectively in Pfeiffer (human diffuse large cell lymphoma B lymphocytes, purchased from Cobioer Biosciences Co., LTD (Nanjing)) and U2932 (B-cell lymphoma cells, purchased from ATCC) cells in order to study the growth cycle to which the cells were blocked upon compound administration. The above cells were treated with various concentrations (0.5 μM, 1 μM, 5 μM, 10 μM) of Compound 1, 10 μM of PC132765 and 10 μM of Compound 6 (FIG. 4a) or 1 μM of Compound 6 (FIG. 4b) for 48 hours, and then cells were collected and washed twice with 1×PBS buffer, and fixed with 75% ethanol at −20° C. for 24 hours, washed again with 1×PBS buffer twice, followed by addition of 0.5 mL 1×PBS buffer and 0.5 mL of PI dyeing liquor (purchased from BD Bioscience, USA), and then the cells were placed in the dark at 37° C. for dyeing 15 minutes and the cell cycle distribution was detected by flow cytometry (BD FACS Calibur).
Experiments shown in FIGS. 4a-4b reflected that Compound 1 influenced the cell cycle of both two cell strains.
A general note: A flow cytometer gives signals particle by particle.

The subject of test [7] is phosphorylation of tyrosine Y223 on Btk. The experiment in a line: Effects on BTK Y223 and downstream signaling pathway proteins in cells (anti-IgM stimulation). The conditions noted are these: Compound 1 in MEC-2, Pfeiffer, Ramos, TMD8, U2932; Compound 35 in MEC-1; 4 hours, then anti-IgM 10 mins. The class given is cell-based, human. The text has this: By assaying a number of cellular biochemical and functional endpoints, the properties of the compounds were further characterized. […] In this experiment, PC132765 (purchased from Shanghai Haoyuan Chemexpress Co., Ltd.), CGI11746 (purchased from Shanghai Haoyuan Chemexpress Co., Ltd.) and Compound 6 (prepared herein) were used as control (see FIGS. 2a-2f).
Effects of the compounds on phosphorylation of BTKY223, BTKY551, PLCγ1Y783, PLCγ2Y759, PLCγ2Y1217, P—NF-κB P65, P-AKT Ser473, Erk Thr202/Tyr204 and the like were determined (FIGS. 2a-2f).

Sequence of BTK WT (Q06187 whole entry): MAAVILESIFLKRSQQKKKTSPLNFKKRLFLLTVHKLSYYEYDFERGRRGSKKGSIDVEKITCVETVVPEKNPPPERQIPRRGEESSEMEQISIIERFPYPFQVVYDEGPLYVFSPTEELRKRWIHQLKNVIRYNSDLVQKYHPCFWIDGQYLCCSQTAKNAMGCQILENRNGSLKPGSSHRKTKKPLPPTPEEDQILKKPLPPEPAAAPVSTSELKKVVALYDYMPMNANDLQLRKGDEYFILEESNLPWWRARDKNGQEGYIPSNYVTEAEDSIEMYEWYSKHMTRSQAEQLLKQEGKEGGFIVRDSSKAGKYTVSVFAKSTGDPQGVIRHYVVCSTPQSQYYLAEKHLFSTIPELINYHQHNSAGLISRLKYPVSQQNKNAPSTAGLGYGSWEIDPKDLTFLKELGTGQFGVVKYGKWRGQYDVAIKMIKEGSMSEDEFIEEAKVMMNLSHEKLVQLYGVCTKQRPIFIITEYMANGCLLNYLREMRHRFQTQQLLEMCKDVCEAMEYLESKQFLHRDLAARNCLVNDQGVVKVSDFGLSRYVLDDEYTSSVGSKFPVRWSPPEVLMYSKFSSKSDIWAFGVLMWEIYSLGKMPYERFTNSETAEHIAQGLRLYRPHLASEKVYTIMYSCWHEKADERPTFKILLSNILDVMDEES

As for `CCC(=O)Nc1cc(Nc2cc(-c3cccc(NC(=O)c4ccc(C(C)(C)C)cc4)c3C)cn(C)c2=O)ccc1C(=O)N1CCOCC1` [Compound 6, N-(3-(5-((3-propanamide-4-(morpholin-4-carbonyl)phenyl)amino)-1-methyl-6-oxo-1,6-dihydropyridin-3-yl)-2-methylphenyl)-4-(tert-butyl)benzamide], the “inhibitory effects against BTK WT” value at BTK WT is listed as “no inhibitory effects”. Further, the GI50 in test [1] was more than 10000 nM; in test [2] it was 4000 nM; in test [3], 750 nM.

Consider `C=CC(=O)Nc1cc(Nc2cc(-c3cccc(NC(=O)c4ccc(C(C)(C)C)cc4)c3C)cn(C)c2=O)ccc1C(=O)N1CCOCC1` [Compound 1, N-(3-(5-((3-acrylamide-4-(morpholin-4-carbonyl)phenyl)amino)-1-methyl-6-oxo-1,6-dihydropyridin-3-yl)-2-methylphenyl)-4-(tert-butyl)benzamide], for which the EC50 (in general, the concentration that produces a half-maximal response) on BTK WT (read-out: EC50 against BTK WT protein) stood at 4.7 nM. Moreover, the “cleavage of DNA repairase poly(ADP-ribose) polymerase (PARP)” value in test [4] (10 μM) is “significant cleavage”; in test [5] (U2932, 10 μM, 48 hours), “significant cleavage”. In addition, the cell apoptosis entry in test [4] is reported as “could lead to cell apoptosis”; in test [5] (U2932, 48 hours), “could lead to cell apoptosis”. For the same compound, the GI50 came out at 6600 nM in test [1], 2200 nM in test [2] and 1 nM in test [3]. Moreover, the “effect on cell cycle” value in test [6] is recorded as “significant cell cycle arrest in G0-G1”. In addition, the “phosphorylation of tyrosine Y223 on Btk” value in test [7] was “selectively and significantly inhibit phosphorylation of tyrosine Y223 on Btk”.
